In patent publication US20200062773A1, “4,4a,5,7-TETRAHYDRO-3H-FURO[3,4-b]PYRIDINYL COMPOUNDS” (Janssen Pharmaceutlca NV, priority 2016, published 2020):

What was measured:
BACE2 = target: T1, BACE2 (Homo sapiens, UniProt Q9Y5Z0); assay: BACE2 biochemical FRET based assay; conditions: recombinant BACE2, 450 minutes at room temperature, pH 5.0; for IC50: read-out: Biochemical FRET based assay pIC50 (converted)
T1 construct: recombinant BACE2 protein in a final concentration of 0.4 μg/ml
T1 sequence (Q9Y5Z0 63-518): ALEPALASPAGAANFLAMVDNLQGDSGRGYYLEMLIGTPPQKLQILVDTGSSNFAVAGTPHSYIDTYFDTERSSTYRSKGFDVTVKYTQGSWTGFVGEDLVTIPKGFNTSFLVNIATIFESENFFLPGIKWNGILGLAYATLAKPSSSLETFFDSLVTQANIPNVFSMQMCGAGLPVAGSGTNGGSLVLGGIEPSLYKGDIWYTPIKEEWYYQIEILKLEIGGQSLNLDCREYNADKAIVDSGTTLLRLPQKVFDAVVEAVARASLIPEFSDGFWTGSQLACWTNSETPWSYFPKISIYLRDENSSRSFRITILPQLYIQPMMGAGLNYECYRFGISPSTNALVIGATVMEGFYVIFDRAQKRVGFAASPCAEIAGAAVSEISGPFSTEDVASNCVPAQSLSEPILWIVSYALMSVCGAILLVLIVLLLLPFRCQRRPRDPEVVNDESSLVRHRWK
Excerpt: BACE2 Biochemical FRET Based Assay
(§1) This assay is a Fluorescence Resonance Energy Transfer Assay (FRET) based assay. The substrate for this assay contains the ‘Swedish’ Lys-Met/Asn-Leu mutation of the amyloid precursor protein (APP) beta-site APP-cleaving enzyme cleavage site. This substrate also contains two fluorophores: (7-methoxycoumarin-4-yl) acetic acid (Mca) is a fluorescent donor with excitation wavelength at 320 nm and emission at 405 nm and 2,4-Dinitrophenyl (Dnp) is a proprietary quencher acceptor. […] Upon cleavage by the beta-site APP-cleaving enzyme, the fluorophore Mca is separated from the quenching group Dnp, restoring the full fluorescence yield of the donor. The increase in fluorescence is linearly related to the rate of proteolysis.
Briefly in a 384-well format recombinant BACE2 protein in a final concentration of 0.4 μg/ml is incubated for 450 minutes at room temperature with 10 μM substrate in incubation buffer (50 mM Citrate buffer pH 5.0, 0.05% PEG, no DMSO) in the absence or presence of compound. Next the amount of proteolysis is directly measured by fluorescence measurement at T=0 and T=450 (excitation at 320 nm and emission at 405 nm). Results are expressed in RFU (Relative Fluorescence Units), as difference between T450 and T0.
(§2) A best-fit curve is fitted by a minimum sum of squares method to the plot of % Controlmin versus compound concentration. From this an IC50 value (inhibitory concentration causing 50% inhibition of activity) can be obtained.

[1] = test system: Abeta 1-42 produced and secreted into the medium of human neuroblastoma SKNBE2 cells; assay: Cellular αLisa assay in SKNBE2 cells; type: cell-based; conditions: human neuroblastoma SKNBE2 cells expressing hAPP695, 18 hours incubation
Protocol: Cellular αLisa Assay in SKNBE2 Cells
In two αLisa assays the levels of Abeta 1-42 produced and secreted into the medium of human neuroblastoma SKNBE2 cells are quantified. The assay is based on the human neuroblastoma SKNBE2 expressing the wild type Amyloid Precursor Protein (hAPP695). The compounds are diluted and added to these cells, incubated for 18 hours and then measurements of Abeta 1-42 are taken. Abeta 1-42 are measured by sandwich αLisa. αLisa is a sandwich assay using biotinylated antibody AbN/25 attached to streptavidin coated beads and antibody cAb42/26 conjugated acceptor beads for the detection of Abeta 1-42 respectively. In the presence of Abeta 1-42, the beads come into close proximity. The excitation of the donor beads provokes the release of singlet oxygen molecules that trigger a cascade of energy transfer in the acceptor beads, resulting in light emission. Light emission is measured after 1 hour incubation (excitation at […] and emission at 615 nm).
as §2

BACE1 = target: T2, BACE1 (Homo sapiens, UniProt P56817); assay: BACE1 biochemical FRET based assay; conditions: Method 1: recombinant BACE1 1 μg/ml, 120 min at room temperature, pH 5.0; for IC50: read-out: Biochemical FRET based assay pIC50 (converted)
T2 construct: recombinant BACE1 protein in a final concentration of 1 μg/ml
Excerpt: BACE1 Biochemical Fret Based Assay
as §1, with “this assay is an APP derived 13 amino acids peptide that contains the” for “this assay contains the”, “cleavage by BACE1, the fluorophore” for “cleavage by the beta-site APP-cleaving enzyme, the fluorophore”
Briefly in a 384-well format recombinant BACE1 protein in a final concentration of 1 μg/ml is incubated for 120 minutes at room temperature with 10 μm substrate in incubation buffer (40 mM Citrate buffer pH 5.0, 0.04% PEG, 4% DMSO) in the absence or presence of compound. Next the amount of proteolysis is directly measured by fluorescence measurement at T=0 and T=120 (excitation at 320 nm and emission at 405 nm). Results are expressed in RFU (Relative Fluorescence Units), as difference between T120 and T0.
as §2

T2 sequence (P56817 46-501): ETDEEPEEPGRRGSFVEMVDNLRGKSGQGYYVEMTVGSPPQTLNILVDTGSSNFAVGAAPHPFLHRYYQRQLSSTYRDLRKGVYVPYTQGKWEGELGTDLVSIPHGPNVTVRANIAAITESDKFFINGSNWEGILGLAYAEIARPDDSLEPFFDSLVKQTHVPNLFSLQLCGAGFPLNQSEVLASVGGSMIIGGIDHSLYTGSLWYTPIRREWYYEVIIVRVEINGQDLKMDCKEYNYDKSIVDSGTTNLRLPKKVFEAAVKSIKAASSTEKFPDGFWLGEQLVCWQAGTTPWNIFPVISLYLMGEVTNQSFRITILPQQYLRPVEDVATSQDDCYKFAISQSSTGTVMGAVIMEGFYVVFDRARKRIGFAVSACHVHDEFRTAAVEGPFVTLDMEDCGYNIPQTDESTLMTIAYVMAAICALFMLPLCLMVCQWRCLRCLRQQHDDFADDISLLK

Row | Structure (SMILES) | IC50 (BACE2) [nM] | Cellular αLisa assay in SKNBE2 cells Abeta 42 pIC50 [1] | IC50 (BACE1) [nM] | Biochemical FRET based assay pIC50 (BACE2) | Biochemical FRET based assay pIC50 (BACE1)
1 | CC1OCC2(c3cc(NC(=O)c4ccc(C#N)cn4)cc(F)c3F)N=C(N)C(C)(C#N)CC12 (single isomer, unassigned) [33c] | 468 | 7.37 | 35.5 |  | 
2 | CC1OCC2(c3cc(NC(=O)c4ccc(C#N)cn4)cc(F)c3F)N=C(N)C(C)(C#N)CC12 (single isomer, unassigned) [33d] | 8910 | 5.78 | 708 |  | 
3 | CC1(C#N)CC2C(C(F)(F)F)OCC2(c2cc(NC(=O)c3cnc(-n4cncn4)cn3)ccc2F)N=C1N (single isomer, unassigned) [34a] | 263 | 7.57 | 6.31 |  | 
4 | CC1(C#N)CC2C(C(F)(F)F)OCC2(c2cc(NC(=O)c3cnc(-n4cncn4)cn3)ccc2F)N=C1N (single isomer, unassigned) [34b] | > 10000 | 5.31 | 1020 |  | 
5 | CC1OCC2(c3cc(NC(=O)c4ccc(OC(F)F)cn4)ccc3F)N=C(N)C(C)(C#N)CC12 (single isomer, unassigned) [35a] | 83.2 | 8.32 | 5.62 |  | 
6 | CC1OCC2(c3cc(NC(=O)c4ccc(OC(F)F)cn4)ccc3F)N=C(N)C(C)(C#N)CC12 (single isomer, unassigned) [35b] | > 10000 | 6.11 | 741 |  | 
7 | COc1cnc(C(=O)Nc2ccc(F)c([C@@]34CO[C@@H](C)[C@@H]3C[C@](C)(C#N)C(N)=N4)c2)cn1 [1a] |  | 5.12 |  | <5 | 5.05
8 | COc1cnc(C(=O)Nc2ccc(F)c([C@]34CO[C@H](C)[C@H]3C[C@@](C)(C#N)C(N)=N4)c2)cn1 [1b] |  | 8.47 |  | 7.21 | 7.89
9 | C[C@@]1(C#N)C[C@@H]2[C@@H](C(F)(F)F)OC[C@]2(c2cc(NC(=O)c3ccc(F)cn3)ccc2F)N=C1N [2c] |  | 8.32 |  | 8.3 | 8.73
10 | C[C@]1(C#N)C[C@H]2[C@H](C(F)(F)F)OC[C@@]2(c2cc(NC(=O)c3ccc(F)cn3)ccc2F)N=C1N [2d] |  | <5.05 |  | <5 | 5
11 | C[C@@]1(C#N)C[C@H]2[C@H](C(F)(F)F)OC[C@@]2(c2cc(NC(=O)c3ccc(F)cn3)ccc2F)N=C1N [2e] |  | <5.05 |  | <5 | <5
12 | C[C@]1(C#N)C[C@@H]2[C@@H](C(F)(F)F)OC[C@]2(c2cc(NC(=O)c3ccc(F)cn3)ccc2F)N=C1N [2f] |  | 7.47 |  | 7.35 | 7.83
13 | C[C@]1(C#N)C[C@H]2[C@H](C(F)(F)F)OC[C@@]2(c2cc(NC(=O)c3ccc(C#N)cn3)ccc2F)N=C1N [3d] |  | <5.05 |  | <5 | 5.02
14 | C[C@@]1(C#N)C[C@H]2[C@H](C(F)(F)F)OC[C@@]2(c2cc(NC(=O)c3ccc(C#N)cn3)ccc2F)N=C1N [3e] |  | 5.34 |  | <5 | 5.84
15 | C[C@]1(C#N)C[C@@H]2[C@@H](C(F)(F)F)OC[C@]2(c2cc(NC(=O)c3ccc(C#N)cn3)ccc2F)N=C1N [3f] |  | 8.1 |  | 6.88 | 8.33
16 | C[C@@H]1OC[C@@]2(c3cc(NC(=O)c4ccc(C#N)cn4)ccc3F)N=C(N)[C@@](C)(C#N)C[C@@H]12 [4c] |  | 6.22 |  | 5.27 | 6.28
17 | COc1cnc(C(=O)Nc2ccc(F)c([C@]34CO[C@H](C)[C@H]3C[C@](C)(C#N)C(N)=N4)c2)cn1 [5b] |  | 7.46 |  | 6.17 | 7.06
18 | COc1cnc(C(=O)Nc2ccc(F)c([C@@]34CO[C@@H](C)[C@@H]3C[C@@](C)(C#N)C(N)=N4)c2)cn1 [5c] |  | <5.05 |  | <5 | <5
19 | C[C@H]1OC[C@]2(c3cc(NC(=O)c4ccc(C#N)cn4)ccc3F)N=C(N)[C@@](C)(C#N)C[C@H]12 [6b] |  | 8.12 |  | 6.68 | 7.89
20 | C[C@@H]1OC[C@@]2(c3cc(NC(=O)c4ccc(C#N)cn4)ccc3F)N=C(N)[C@](C)(C#N)C[C@@H]12 [6c] |  | 5.14 |  | <5 | 5.12
21 | C[C@]1(C#N)C[C@H]2[C@H](C(F)(F)F)OC[C@@]2(c2cc(NC(=O)c3cnc(OCF)cn3)ccc2F)N=C1N [7c] |  | 5.32 |  | <5 | 5.97
22 | C[C@]1(C#N)C[C@@H]2[C@@H](C(F)(F)F)OC[C@]2(c2cc(NC(=O)c3cnc(OCF)cn3)ccc2F)N=C1N [7e] |  | 7.33 |  | 6.24 | 7.68
23 | C[C@@]1(C#N)C[C@H]2[C@H](C(F)(F)F)OC[C@@]2(c2cc(NC(=O)c3cnc(OCF)cn3)ccc2F)N=C1N [7f] |  | 5.43 |  | <5 | 5.74
24 | C[C@@]1(C#N)C[C@@H]2[C@@H](C(F)(F)F)OC[C@]2(c2cc(NC(=O)c3ncc(Cl)cn3)ccc2F)N=C1N [8c] |  | 8.17 |  | 8.46 | 8.75
25 | C[C@]1(C#N)C[C@H]2[C@H](C(F)(F)F)OC[C@@]2(c2cc(NC(=O)c3ncc(Cl)cn3)ccc2F)N=C1N [8d] |  | 5.1 |  | 5.08 | 5.37
26 | N#Cc1ccc(C(=O)Nc2ccc(F)c([C@]34CO[C@H](C(F)(F)F)[C@H]3CCC(N)=N4)c2)nc1 [11a] |  | 8.58 |  | 6.88 | 8.53
